Seven compounds from patent EP4663640A1 (Shanghai Institute of Materia Medica, Chinese Academy of …, priority 2023, dated 2024) can be followed below.

Like-named read-outs stand apart in the source and are kept apart here.

The target in data set [1] is T1, hTRPC5 (Homo sapiens, UniProt Q9UL62).
T1 construct: expressed in transfected cells; host or cells: HEK-293
T1 sequence (Q9UL62 1-973): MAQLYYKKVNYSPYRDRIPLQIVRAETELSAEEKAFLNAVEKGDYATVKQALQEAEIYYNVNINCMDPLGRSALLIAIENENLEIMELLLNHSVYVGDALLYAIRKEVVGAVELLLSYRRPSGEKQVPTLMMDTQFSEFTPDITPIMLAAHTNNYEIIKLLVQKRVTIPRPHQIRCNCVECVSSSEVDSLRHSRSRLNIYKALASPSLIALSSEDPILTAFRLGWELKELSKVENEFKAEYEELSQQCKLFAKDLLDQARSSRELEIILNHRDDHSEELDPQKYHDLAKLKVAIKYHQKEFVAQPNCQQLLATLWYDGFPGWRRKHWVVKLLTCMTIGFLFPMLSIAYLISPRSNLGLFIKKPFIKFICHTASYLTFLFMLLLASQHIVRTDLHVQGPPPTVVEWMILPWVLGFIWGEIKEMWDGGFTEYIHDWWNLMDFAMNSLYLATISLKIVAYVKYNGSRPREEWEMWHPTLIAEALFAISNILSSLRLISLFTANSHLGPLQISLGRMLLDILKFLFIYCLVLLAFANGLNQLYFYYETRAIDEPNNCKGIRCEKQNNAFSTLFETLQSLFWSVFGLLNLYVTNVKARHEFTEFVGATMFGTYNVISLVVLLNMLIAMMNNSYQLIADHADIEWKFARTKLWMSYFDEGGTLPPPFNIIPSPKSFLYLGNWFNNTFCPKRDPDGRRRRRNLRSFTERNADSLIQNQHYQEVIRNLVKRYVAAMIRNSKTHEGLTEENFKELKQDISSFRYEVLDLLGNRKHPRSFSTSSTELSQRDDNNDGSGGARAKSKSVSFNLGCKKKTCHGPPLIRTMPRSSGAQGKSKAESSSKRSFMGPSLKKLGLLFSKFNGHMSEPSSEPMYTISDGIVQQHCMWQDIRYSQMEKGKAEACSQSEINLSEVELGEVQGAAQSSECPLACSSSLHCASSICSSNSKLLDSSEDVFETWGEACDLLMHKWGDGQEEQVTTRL
Briefly: TRPC5 inhibitory activity assay (FLIPR calcium fluorescence, Englerin A stimulation). In kind it is cell-based. The method, then: HEK-293 cells expressing hTRPC3, hTRPC4 or hTRPC5 were seeded into black-bottomed 96-well plates coated with poly-lysine (PDL), with 2×10^4 cells per well. After 8 h of culture, the original culture medium was discarded, and 60 µL of Fluo-4/AM dye with a final concentration of 4 µM was added. The plates were incubated at 37 °C for 60 min, and then rinsed five times with calcium flow detection buffer. […] Then, the agonist Englerin A (EA) (MedChemExpress, Shanghai, China, final concentration of 0.3nM) was added, and the fluorescence signal was collected for 600 seconds. The fluorescence signal of the trajectory diagram is represented by F/F0, wherein F is the fluorescence signal at different time points, and F0 is the basic fluorescence signal, that is, the average value of the fluorescence signal at the first 10 time points. […] The area under the curve of the change in fluorescence intensity after adding EA was calculated. IC50 value was calculated using log[Inhibitor] vs. response - Variable slope, taking into account the area under the curve and the log value of the concentration of the compound.

Data set [2] concerns the target T2, hERG channel (Homo sapiens, UniProt Q12809).
T2 construct: expressed in transfected cells; host or cells: CHO
The experiment in a line: hERG channel inhibition assay (Qpatch whole-cell recording, CHO cells expressing hERG). In kind it is cell-based. To be noted: Table 3; highest test concentration 40 µM; read-out: inhibitory activity IC50 hERG. The method, then:
(§1) CHO cells expressing hERG protein were cultured in 175cm^2 culture flasks. When the cell density grew to 60-80%, the culture medium was removed, and the cells were washed with 7mL PBS, and then 3mL Detachin was added for digestion. After digestion was complete, 7mL culture medium was added for neutralization, and then centrifuged, the supernatant was aspirated, and 5mL culture medium was added for resuspending to ensure that the cell density was 2-5×10^6/mL.
(§2) The single-cell high-impedance sealing and whole-cell pattern formation process were all automatically completed by the Qpatch instrument. After obtaining the whole-cell recording mode, the cell was clamped at -80 mV. […] This voltage stimulus was applied every 15 seconds. After recording for 2 minutes, the extracellular solution was recorded for 2 minutes, and then the drug administration process began. The compound concentration started from the lowest test concentration, and each test concentration was given for 2 minutes. After all concentrations were given continuously, the positive control compound 10 µM Cisapride was given. At least 3 cells (n≥3) were tested for each concentration.
(§3) The stock solution of compound was diluted with extracellular solution, 5 µL of 20 mM compound stock solution was added to 2495 µL of extracellular solution, 500 times diluted to 40 µM, and then 3 times serial dilution was performed in the extracellular solution containing 0.2% DMSO to obtain the final concentration to be tested.
(§4) (5) Data analysis: The experimental data were analyzed by XLFit software.

In data set [3] the target is T3, hERG channel (relative to TRPC5) (Homo sapiens, UniProt Q12809).
T3 construct: expressed in transfected cells; host or cells: CHO
Described as above. In kind it is cell-based. The note with it: human, CHO cells expressing hERG; ratio of IC50 values. The method, then: as §1, §2, §3, §4
In general terms: The hERG channel carries a current that helps repolarise heart muscle cells.

Data set [4] in a line: Preliminary pharmacokinetic evaluation, plasma drug concentration after oral administration to mice. The class given is in vivo, ICR mice. To be noted: oral 10 mg/kg, Mean ± SD, N = 3. As for the experimental part: The test compound was prepared according to the following solvent: an aqueous solution of DMSO/Tween 80/0.5% (m/v) CMC-Na at a ratio of 2:2:96 (v/v/v), with a drug concentration of 1 mg/mL. Then, the test compound was gavaged to mice at a dosage of 10 mL/kg, with a dose of 10 mg/kg. Each compound was administered to 3 mice. At 1h and 4h after administration, about 50 µL of blood was collected from the orbital venous plexus of the mouse and placed in a centrifuge tube containing EDTA-K2 anticoagulant.

Data set [5] is described as follows: Liver microsome stability test, mouse. The class given is in vitro ADME. To be noted: Mouse liver microsomes. An excerpt: Calculation of Intrinsic Clearance: Clint = (1000 × slope)/(P); [formula]
Background: Microsomes from liver hold many membrane-bound enzymes, among them those of drug oxidation.

Data set [6] concerns mice. The experiment in a line: Marble burial test (antianxiety). In kind it is in vivo. To be noted: before versus after administration (Figure 3). The method, then:
(§5) The drug to be tested was dissolved in DMSO: Tween 80: distilled water at a ratio of 2:2:96 (v/v/v), and then administered to mice by gavage at a volume of 10 mL/kg. […] The blank control group was only given 10 mL/kg of the above solvent.
The mouse marble burial test is a behavioral assay used for the screening of antianxiety drugs. It exploits the natural digging behavior of mice in environments such as burrows or escape tunnels and is sensitive to small changes in behavior caused by genetic manipulation, disease, or drug treatment.
A 5cm thick sawdust litter was laid in a 33 cm×24 cm×28 cm carton, and 4×5 black marbles (4 cm apart) with a total of 20 black marbles of 14mm in diameter were neatly placed on the litter. The mouse was put into the carton facing the corner for 30 minutes. After 30 minutes, the mouse was carefully taken out and the number of marbles buried by the mouse was counted. If more than 2/3 of the marble was buried, it was considered a whole marble. First, a blank experiment was conducted. Before the experiment, the mouse was taken to the experimental environment to adapt. After 1 hour, the experiment began. After the experiment, the mouse was returned to the cage and the number of marbles buried by the mouse was counted. On the second day, the mouse was taken to the experimental environment to adapt for 1 hour before the drug was administered. After the drug administration, the marble burying experiment was conducted for […]. After the experiment, the mouse was carefully taken out and returned to the cage to prevent the mouse from escaping violently and affecting the experimental results. After counting, the black marbles were taken out and wiped with alcohol, and the litter was turned over again to remove the smell of the previous mouse to prevent it from affecting the experiment of the next mouse. The marbles were neatly placed for the experiment of the next mouse.

The subject of data set [7] is mice. The experiment in a line: Tail suspension test (antidepression). To be noted: before versus after administration (Figure 4). The class given is in vivo. As for the experimental part:
as §5
The mouse tail suspension test (TST) is a widely used experimental method to evaluate the effectiveness of antidepressants and other psychotropic drugs. The principle of the test is to suspend a mouse by its tail and observe its behavior. The mouse will initially struggle to escape, but when it realizes that escape is impossible, it will eventually stop struggling and enter a state of immobility that indicates despair. This immobility behavior is used to measure depression-like states, and the severity of the condition is assessed by recording the duration of immobility.
The same mouse was subjected to the tail suspension test immediately after the marble burying test. A tail suspension test box was built using a black frosted acrylic board, 55 cm high, 15 cm long, and 11.5 cm wide. The three sides and top of the box were frosted blackboards, and one side was used for video recording. The mouse tail was wrapped with yellow tape 2 cm away from the tip of the tail, and the mouse was hung upside down in the middle of the top acrylic board. The tip of the mouse tail was about 3 cm away from the acrylic board, and the body was suspended and could not touch the surrounding board wall. The test time for each mouse lasted for 6 minutes, and the immobility time of the mouse during this time was counted. After the experiment, the mouse was returned to the cage, and the inside of the box and the table were wiped with alcohol to remove the smell of the previous mouse to prevent affecting the next mouse experiment. The criteria for immobility in the tail suspension test: stop struggling, no flexion or twisting of the body, no swinging of the hind limbs, and slight swinging of the forelimbs and head were also counted as immobility time.

Data set [8] deals with T1, hTRPC5. The experiment in a line: TRPC5 agonist activity assay (FLIPR calcium fluorescence). The class given is cell-based. To be noted: Table 2, agonist activity on TRPC5 channels. As for the experimental part: HEK-293 cells expressing hTRPC5 were seeded into PDL-coated black-walled 96-well plates, with 2×10^4 cells per well. After 8 hours of culture, the original culture medium was discarded, and 60 µL of 4 µM Fluo-4/AM dye was added immediately. The cells were incubated at 37 °C for 60 minutes, and then rinsed with calcium flow detection buffer 5 times. The cell plates were placed in FLIPR®TETRA (Molecular Devices, Sunnyvale, CA, USA) preheated at 30 °C, excited at a wavelength of 488 nm, and the fluorescence signals were continuously recorded in the range of 515-535 nm with a sampling frequency of 1 s. After recording for 360 seconds, solvent control and test compounds were added, and the fluorescence signal was collected for another 600 seconds. The fluorescence signal of the trajectory diagram is represented by F/F0, wherein F is the fluorescence signal at different time points, and F0 is the basic fluorescence signal, that is, the average value of the fluorescence signal at the first 10 time points. The dose-effect diagram first took F/F0 =1 as the baseline. The area under the curve of the change in fluorescence intensity after adding test compound was calculated. IC50 value was calculated using log[agonist] vs. response - Variable slope, taking into account the area under the curve and the log value of the concentration of the compound.

T3 sequence (Q12809 whole entry): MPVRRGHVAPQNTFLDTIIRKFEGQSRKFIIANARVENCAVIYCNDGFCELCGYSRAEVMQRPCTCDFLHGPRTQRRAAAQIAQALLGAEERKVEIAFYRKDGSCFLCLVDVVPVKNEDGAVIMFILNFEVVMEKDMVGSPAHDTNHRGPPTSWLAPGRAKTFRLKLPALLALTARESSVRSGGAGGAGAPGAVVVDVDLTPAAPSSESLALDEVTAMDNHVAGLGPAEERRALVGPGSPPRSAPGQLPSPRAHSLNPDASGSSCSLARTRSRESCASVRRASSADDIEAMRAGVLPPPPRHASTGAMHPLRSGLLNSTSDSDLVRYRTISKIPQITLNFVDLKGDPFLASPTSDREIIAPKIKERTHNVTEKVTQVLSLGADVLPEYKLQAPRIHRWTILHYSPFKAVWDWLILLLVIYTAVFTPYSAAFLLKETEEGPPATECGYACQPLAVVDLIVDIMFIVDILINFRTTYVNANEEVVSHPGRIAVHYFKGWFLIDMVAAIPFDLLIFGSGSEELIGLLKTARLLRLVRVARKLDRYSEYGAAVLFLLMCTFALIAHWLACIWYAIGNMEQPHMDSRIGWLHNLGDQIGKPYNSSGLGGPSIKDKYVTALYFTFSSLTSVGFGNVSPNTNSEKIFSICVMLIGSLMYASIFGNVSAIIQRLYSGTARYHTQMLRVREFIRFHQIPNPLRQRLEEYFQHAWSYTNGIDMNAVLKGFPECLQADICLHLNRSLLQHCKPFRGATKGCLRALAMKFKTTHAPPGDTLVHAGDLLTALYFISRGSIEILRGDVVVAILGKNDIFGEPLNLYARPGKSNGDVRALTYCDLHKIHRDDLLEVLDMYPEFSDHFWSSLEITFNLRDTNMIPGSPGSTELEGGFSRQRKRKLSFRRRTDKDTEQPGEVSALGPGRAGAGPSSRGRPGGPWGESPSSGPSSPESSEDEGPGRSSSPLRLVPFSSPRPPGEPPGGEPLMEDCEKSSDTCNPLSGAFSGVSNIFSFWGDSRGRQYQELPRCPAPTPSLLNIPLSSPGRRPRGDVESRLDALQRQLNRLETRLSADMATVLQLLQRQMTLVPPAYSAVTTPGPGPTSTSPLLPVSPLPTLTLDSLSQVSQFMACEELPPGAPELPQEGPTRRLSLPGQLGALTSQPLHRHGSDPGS
T2 sequence (Q12809 whole entry): as above

As for `Cn1c(=O)n(CCCO)c(=O)c2c1nc(C1(F)CCC(F)(F)CC1)n2Cc1ccc(C(F)(F)F)cc1` [Example E60, 1-(3-hydroxypropyl)-3-methyl-8-(1,4,4-trifluorocyclohexyl)-7-(4-(trifluoromethyl)benzyl)-3,7-dihydro-1H-purine-2,6-dione], the half-maximal inhibitory concentration (IC50) in data set [1] (Table 1, TRPC5 channels, HEK-293 cells expressing hTRPC5, read-out: FLIPR IC50) was found to be 6.87 nM; in data set [1] (Table 3, read-out: inhibitory activity IC50 TRPC5), 6.9 nM; in data set [2], 13300 nM. The selectivity ratio at 2 min in data set [3] is 1940. The compound also came in with a concentration at 1 h in data set [4] (male, ICR, mouse, 1h) of 1310 ± 45 ng/mL. The concentration at 4 h in data set [4] (male, ICR, mouse, 4h) was 1180 ± 163 ng/mL.
`Cn1c(=O)n(CCCO)c(=O)c2c1nc(Oc1cccc(Cl)c1)n2Cc1ccc(Cl)cc1` [HC-070, reference compound]: the “Stability Evaluation” value in data set [5] is recorded as “Worse (MF%<30%, worse metabolic stability)”. In data set [5] (metabolic bioavailability), this compound came in with an MF % of 19.8%. Moreover, the half-life in data set [5] (pH 7.4, 1µM compound, read-out: Half-life T1/2) was 11.7 min. Further, the “drug concentration 1h” value in data set [4] (1h) was 802 ± 164 ng/mL. In addition, the “drug concentration 4h” value in data set [4] (4h) came to 398 ± 57 ng/mL. Moreover, the “number of marbles buried by mice” value in data set [6] (oral 1 mg/kg) is recorded as “significantly reduced”. In addition, the “immobility time of mice” value in data set [7] (oral 1 mg/kg) is “significantly reduced”.
`CNCCC(Oc1ccc(C(F)(F)F)cc1)c1ccccc1` (stereo not shown) [Fluoxetine, reference compound]: in data set [6] (oral 10 mg/kg), the “number of marbles buried by mice” value is “significantly reduced”. Also, the “immobility time of mice” value in data set [7] (oral 10 mg/kg) is “significantly reduced”.
In the case of `Cn1c(=O)n(CCCO)c(=O)c2c1nc(C1=CCC(F)(F)CC1)n2Cc1ccc(Cl)cc1` [Example E37, 7-(4-chlorobenzyl)-8-(4,4-difluorocyclohex-1-en-1-yl)-1-(3-hydroxypropyl)-3-methyl-3,7-dihydro-1H-purine-2,6-dione], the EC50 in data set [8] fell in the range of 100 to 200 nM.
Consider `CC(C)C1CCC(F)(c2nc3c(c(=O)n(CCCO)c(=O)n3C)n2Cc2ccc(Cl)cc2)CC1` (stereo not shown) [Example E31, 7-(4-chlorobenzyl)-8-(1-fluoro-4-isopropylcyclohexyl)-1-(3-hydroxypropyl)-3-methyl-3,7-dihydro-1H-purine-2,6-dione], for which the EC50 in data set [8] turned out to be 102 nM.
Still for that read-out and setting: then `Cn1c(=O)n(CCCO)c(=O)c2c1nc(C1(F)CC(c3ccccc3)C1)n2Cc1ccc(Cl)cc1` (stereo not shown) [Example E17, 7-(4-chlorobenzyl)-8-(1-fluoro-3-phenylcyclobutyl)-1-(3-hydroxypropyl)-3-methyl-3,7-dihydro-1H-purine-2,6-dione], with 242 nM.
For the compound `CC(C)n1c(=O)n(CCCO)c(=O)c2c1nc(C1CC1C1CC1)n2Cc1ccc(Cl)cc1` (stereo not shown) [Example E14, 8-([1,1'-bis(cyclopropan)]-2-yl)-7-(4-chlorobenzyl)-1-(3-hydroxypropyl)-3-isopropyl-3,7-dihydro-1H-purine-2,6-dione], the EC50 in data set [8] was 105 nM.

The IC50 is the midpoint of a concentration-inhibition curve. Broadly, the EC50 is the concentration at which the effect is half-maximal.
